Data published in ChEMBL document CHEMBL1201862, “PubChem BioAssay data set” (2004).
Activity calls are given as the source filed them.

Tests used:
[1] = insulin promoter down-regulators in MIN6 cells, imaging, high-content screening, mouse beta cells (AID 1628); assay type: functional
[2] = tested on: Streptococcus sp. 'group A'; test: growth inhibition of control SK(-) GAS strain, dose response, counter-screen for streptokinase expression inhibitor project, luminescence, kanamycin, BacTiterGlo, confirmation (AID 1900); assay type: functional, organism-based
[3] = cytotoxicity in MIN6 insulinoma cells, dose response, cytotoxicity control, cell-based, mouse insulinoma (AID 2122); assay type: functional;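 further: confirmatory high-throughput counterscreen run to flag cytotoxic compounds; mouse MIN-6 beta cells carrying an insulin promoter eGFP reporter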
[4] = tested on: Streptococcus; test: Group A Streptococcus viability loss, dose response, counter-screen for streptokinase expression inhibitor project, luminescence, BacTiterGlo (AID 1915); assay type: functional, organism-based;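 further: potency for reduction of bacterial viability or growth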
[5] = molecular target: T1, Short transient receptor potential channel 4 (Mus musculus, UniProt Q9QUQ5); test: mouse TRPC4 channel activators, dose response, cell-based, HEK293 TRPC4/mu-opioid, Fluo-4 calcium (AID 434937); assay type: functional
T1 sequence (Q9QUQ5 whole entry): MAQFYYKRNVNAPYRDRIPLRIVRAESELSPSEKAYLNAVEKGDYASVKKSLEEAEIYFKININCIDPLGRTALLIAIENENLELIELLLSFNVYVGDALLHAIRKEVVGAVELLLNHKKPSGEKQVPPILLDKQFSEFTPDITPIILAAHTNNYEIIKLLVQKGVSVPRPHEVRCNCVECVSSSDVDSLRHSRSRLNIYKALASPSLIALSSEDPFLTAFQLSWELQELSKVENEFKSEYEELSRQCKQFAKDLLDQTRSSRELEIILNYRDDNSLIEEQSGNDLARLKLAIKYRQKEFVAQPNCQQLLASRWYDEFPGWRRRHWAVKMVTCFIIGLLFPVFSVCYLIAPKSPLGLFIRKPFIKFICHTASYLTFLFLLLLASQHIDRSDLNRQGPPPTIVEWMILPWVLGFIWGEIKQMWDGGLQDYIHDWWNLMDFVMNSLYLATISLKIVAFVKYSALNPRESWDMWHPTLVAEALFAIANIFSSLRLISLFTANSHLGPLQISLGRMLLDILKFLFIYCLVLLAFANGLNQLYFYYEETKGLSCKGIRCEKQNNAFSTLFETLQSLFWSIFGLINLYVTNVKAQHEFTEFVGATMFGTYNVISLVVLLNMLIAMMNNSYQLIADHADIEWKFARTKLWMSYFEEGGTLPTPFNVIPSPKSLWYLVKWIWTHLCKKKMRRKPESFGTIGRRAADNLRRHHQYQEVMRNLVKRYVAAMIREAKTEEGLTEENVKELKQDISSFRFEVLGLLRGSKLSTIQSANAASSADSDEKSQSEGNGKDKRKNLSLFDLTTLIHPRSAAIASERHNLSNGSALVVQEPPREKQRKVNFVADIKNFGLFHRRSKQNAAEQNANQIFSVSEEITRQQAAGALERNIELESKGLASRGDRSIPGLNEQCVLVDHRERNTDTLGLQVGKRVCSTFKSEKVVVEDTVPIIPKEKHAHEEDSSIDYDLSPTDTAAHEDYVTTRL

[6] = molecular target: T2, Streptokinase A (Streptococcus pyogenes serotype M1, UniProt P10520); test: S. pyogenes streptokinase expression inhibitors, potency, dose response, plasminogen activation absorbance, OD405 (AID 1914); assay type: functional, Streptococcus pyogenes M1 GAS;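 further: secreted streptokinase activity via plasminogen activation per viability signal from cell pellet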
T2 sequence (P10520 whole entry): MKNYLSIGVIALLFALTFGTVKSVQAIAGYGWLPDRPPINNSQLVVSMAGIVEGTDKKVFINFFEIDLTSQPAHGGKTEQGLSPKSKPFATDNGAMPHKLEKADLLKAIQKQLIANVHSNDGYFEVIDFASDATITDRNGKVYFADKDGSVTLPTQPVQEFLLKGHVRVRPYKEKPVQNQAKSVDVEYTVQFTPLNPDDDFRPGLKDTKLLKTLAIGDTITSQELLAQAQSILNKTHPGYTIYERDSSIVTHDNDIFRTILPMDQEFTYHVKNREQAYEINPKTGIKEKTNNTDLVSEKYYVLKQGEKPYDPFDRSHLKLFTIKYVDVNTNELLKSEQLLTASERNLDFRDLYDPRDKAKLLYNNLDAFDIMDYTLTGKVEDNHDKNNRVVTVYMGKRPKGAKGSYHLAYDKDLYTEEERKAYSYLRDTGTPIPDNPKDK

[7] = molecular target: T3, Coagulation factor XII (Homo sapiens, UniProt P00748); assay type: functional;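 further: activated factor XIIa alpha cleaving a fluorogenic AMC peptide substrate; inhibitor potency from loss of enzyme activity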
T3 sequence (P00748 whole entry): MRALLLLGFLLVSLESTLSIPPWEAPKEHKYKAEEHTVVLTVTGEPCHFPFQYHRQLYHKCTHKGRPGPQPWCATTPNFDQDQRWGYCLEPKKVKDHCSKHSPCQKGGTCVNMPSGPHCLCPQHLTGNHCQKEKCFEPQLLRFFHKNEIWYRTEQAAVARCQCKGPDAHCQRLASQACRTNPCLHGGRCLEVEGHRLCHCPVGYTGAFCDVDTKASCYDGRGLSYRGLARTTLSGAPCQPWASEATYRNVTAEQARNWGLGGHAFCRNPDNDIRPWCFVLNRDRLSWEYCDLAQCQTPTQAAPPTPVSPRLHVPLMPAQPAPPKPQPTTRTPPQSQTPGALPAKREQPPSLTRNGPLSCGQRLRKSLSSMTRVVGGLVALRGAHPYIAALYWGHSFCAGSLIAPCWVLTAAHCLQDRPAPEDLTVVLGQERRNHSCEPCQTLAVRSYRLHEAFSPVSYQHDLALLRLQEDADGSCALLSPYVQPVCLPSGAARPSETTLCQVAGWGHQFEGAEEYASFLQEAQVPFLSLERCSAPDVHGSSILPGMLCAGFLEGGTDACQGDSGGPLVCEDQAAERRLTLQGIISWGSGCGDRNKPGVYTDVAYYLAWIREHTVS

[8] = inhibitors of HIV Env-driven cell fusion, dose response, cherry-pick (AID 652057); assay type: functional, cell-based
[9] = CEM21 lymphoblast cell cytotoxicity, dose response, cytotoxicity control for viral fusion inhibitor project, CellTiter-Glo luminescence, cherry-picked (AID 652042); assay type: functional, cell-based;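 further: potency for signal decrease meaning cytotoxicity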
[10] = ZM109 Env clade C HIV-1 fusion inhibitors, dose response, HeLa effector, CEM target cells, luciferase, cherry-pick (AID 652058); assay type: functional, cell-based
[11] = off-target signal loss in HeLa-CEM21 co-culture – HeLa F-luc CTL cells, cherry-picked, counter-screen for HIV-1 Env fusion inhibitor project, dose response (AID 652040); assay type: functional, cell-based;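 further: potency for signal decrease marking cytotoxic or nonspecific inhibition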
[12] = inhibitors of clade B AD8 Env fusion, dose response, cell-based, cherry-pick (AID 652062); assay type: functional;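 further: luciferase signal from cell-cell fusion driven by HIV-1 clade B AD8 Env; potency is for inhibitors of fusion seen as a drop in luminescence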
[13] = molecular target: T4, Aminopeptidase N (Plasmodium falciparum FcB1/Columbia, UniProt O96935); test: P. falciparum M1AAP inhibitors, biochemical, fluorogenic H-Leu-NHMec substrate, 1536-well (AID 1445); parameters: species or system Plasmodium falciparum 3D7, 3D7
T4 sequence (O96935 whole entry): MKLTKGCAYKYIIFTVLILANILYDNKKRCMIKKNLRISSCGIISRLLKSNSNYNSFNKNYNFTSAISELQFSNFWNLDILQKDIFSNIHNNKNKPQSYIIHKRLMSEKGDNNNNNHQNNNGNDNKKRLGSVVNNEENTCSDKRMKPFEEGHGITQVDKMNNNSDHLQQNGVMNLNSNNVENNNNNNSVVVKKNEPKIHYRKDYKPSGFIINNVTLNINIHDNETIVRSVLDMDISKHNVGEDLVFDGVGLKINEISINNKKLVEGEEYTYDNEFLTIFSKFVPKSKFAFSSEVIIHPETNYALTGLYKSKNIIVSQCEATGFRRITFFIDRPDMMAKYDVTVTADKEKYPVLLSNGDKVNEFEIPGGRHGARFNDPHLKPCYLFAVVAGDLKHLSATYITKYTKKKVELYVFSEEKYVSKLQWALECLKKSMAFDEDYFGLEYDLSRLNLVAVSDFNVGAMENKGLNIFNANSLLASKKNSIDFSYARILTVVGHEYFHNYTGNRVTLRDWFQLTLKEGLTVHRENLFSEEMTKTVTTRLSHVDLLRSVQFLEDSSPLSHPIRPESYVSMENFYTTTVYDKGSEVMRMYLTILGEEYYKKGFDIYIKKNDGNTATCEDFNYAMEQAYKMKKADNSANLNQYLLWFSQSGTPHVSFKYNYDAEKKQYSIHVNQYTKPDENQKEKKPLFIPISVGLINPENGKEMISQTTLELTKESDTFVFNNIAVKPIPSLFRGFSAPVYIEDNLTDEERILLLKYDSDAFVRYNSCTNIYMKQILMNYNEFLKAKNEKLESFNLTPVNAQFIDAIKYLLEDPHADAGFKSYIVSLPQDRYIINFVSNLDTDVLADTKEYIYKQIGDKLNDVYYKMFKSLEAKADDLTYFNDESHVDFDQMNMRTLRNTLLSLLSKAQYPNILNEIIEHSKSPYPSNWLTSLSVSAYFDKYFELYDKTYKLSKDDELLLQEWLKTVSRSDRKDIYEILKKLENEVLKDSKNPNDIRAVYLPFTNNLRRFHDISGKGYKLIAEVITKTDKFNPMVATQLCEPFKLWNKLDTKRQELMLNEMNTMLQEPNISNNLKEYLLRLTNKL

[14] = molecular target: T5, RNA-binding protein pos-1 (Caenorhabditis elegans, UniProt G5EF15); test: inhibitors of POS-1/mex-3 RNA binding, dose response, biochemical, fluorescence polarization (AID 1964);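 further: purified POS-1 fused to maltose binding protein made in E. coli; potency of compounds blocking POS-1 binding to fluorescent RNA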
T5 sequence (G5EF15 whole entry): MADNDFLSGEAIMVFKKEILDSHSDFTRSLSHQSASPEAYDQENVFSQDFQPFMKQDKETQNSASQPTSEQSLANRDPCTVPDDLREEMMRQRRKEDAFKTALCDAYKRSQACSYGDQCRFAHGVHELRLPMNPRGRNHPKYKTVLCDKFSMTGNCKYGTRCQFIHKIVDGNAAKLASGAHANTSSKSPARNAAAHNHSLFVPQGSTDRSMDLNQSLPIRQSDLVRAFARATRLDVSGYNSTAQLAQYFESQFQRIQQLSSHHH

[15] = molecular target: T6, Zinc finger protein mex-5 (Caenorhabditis elegans, UniProt Q9XUB2); test: MEX-5/TCR-2 RNA interaction inhibitors, dose response, biochemical, C. elegans, fluorescence polarization (AID 1960)
T6 sequence (Q9XUB2 whole entry): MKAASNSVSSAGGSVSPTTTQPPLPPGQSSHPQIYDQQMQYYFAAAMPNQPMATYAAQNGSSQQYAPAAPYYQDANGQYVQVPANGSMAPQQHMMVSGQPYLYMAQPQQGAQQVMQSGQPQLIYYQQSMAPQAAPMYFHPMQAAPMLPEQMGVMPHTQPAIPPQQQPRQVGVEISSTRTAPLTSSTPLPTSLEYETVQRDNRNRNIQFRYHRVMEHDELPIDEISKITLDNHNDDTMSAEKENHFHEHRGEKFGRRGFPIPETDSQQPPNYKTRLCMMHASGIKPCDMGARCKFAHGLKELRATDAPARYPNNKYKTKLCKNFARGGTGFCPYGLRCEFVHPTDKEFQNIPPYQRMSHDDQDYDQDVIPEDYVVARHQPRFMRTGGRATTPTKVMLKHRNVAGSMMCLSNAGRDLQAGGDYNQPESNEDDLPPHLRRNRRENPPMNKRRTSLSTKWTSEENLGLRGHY

[16] = cells; assay type: functional, cell-based
[17] = cells; assay type: functional, cell-based; remark: listed apart in the source

With `Cc1sc2nc(-c3ccccn3)nc(O)c2c1-c1ccccc1` the IC50 [1] was 4.11 µM (active), the EC50 [2] was 1.25 µM (active) and the IC50 [3] was 5.43 µM (active). For the same molecule, the EC50 [4] was 23.9 µM (active).

For `O=[N+]([O-])c1ccc(N2CCNCC2)c2ncccc12`, the EC50 [5] was 0.0373 µM (active).

In the case of `CN(C)C(CNC(=O)c1cccc(S(=O)(=O)N(C)C)c1)c1ccccc1` (stereo unspecified), the EC50 [5] is reported as 0.299 µM (active).

With `COc1cc(OC)cc(C(=O)NC(=S)NNC(=O)Cc2cccs2)c1` the EC50 [2] was 0.814 µM (active), the EC50 [6] was > 150 µM (not active) and the EC50 [4] was 11.6 µM (active). For the same molecule, the EC50 [5] was 10.6 µM (active).

In the case of `Cc1cc(O)nc(N/N=C/c2cc(C)n(CC(F)(F)F)c2C)n1`, the IC50 [1] is reported as 2 µM (active) and the IC50 [3] is reported as 11.2 µM (inactive).

For `Cc1ccc(S(=O)(=O)N(CC(=O)NCCC2=CCCCC2)Cc2ccccc2)cc1`, the IC50 [7] was > 50 µM (inactive), the AC50 [8] was 5.01 µM (active) and the AC50 [9] was 41.1 µM (active). For the same molecule, the AC50 [10] was 10.7 µM (active), the AC50 [11] was 7.25 µM (active) and the AC50 [12] was 10.2 µM (active).

In the case of `CN(C)c1ccc(C(=O)NN2C(=O)c3ccccc3C2=O)cc1`, the IC50 [7] is reported as > 50 µM (inactive).

For `O=C(O)c1cc(-c2ccc(/C=N/Nc3ccc([N+](=O)[O-])cn3)o2)ccc1Cl`, the IC50 [13] was 12.7 µM (active), the EC50 [14] was 31 µM (active) and the EC50 [15] was 6.29 µM (active).

In the case of `Nc1nc2nc(-c3cccs3)cc(C(F)(F)F)n2n1`, the IC50 [13] is reported as 61.4 µM (active), the EC50 [16] is reported as > 350 µM (not active) and the EC50 [17] is reported as > 350 µM (not active).

For `COC(=O)c1sccc1NC(=O)/C=C/c1c(Cl)cccc1Cl`, the IC50 [7] was > 50 µM (inactive).
